SMILES strings stand for the structures.

For the assay, the system named is Aβ production. In words: Cellular Aβ IC50 determination (memapsin 2 activity in a cellular assay of Aβ production). The class given is cell-based, Chinese hamster. Particulars: Cricetulus griseus; Chinese hamster ovary cells over-expressing human APP695 with London and Swedish mutations, 24 h, Aβ40 sandwich ELISA; read-out: M2 IC50. On the procedure: The potency of compounds against memapsin 2 activity was determined in a cellular assay of Aβ production. […] Chinese hamster ovary cells that over-express human APP695 with the London and Swedish mutations were seeded in multi-well plates at 10% confluency. Compounds are dissolved in DMSO to concentrations near 1 mM, and diluted into culture media to a final concentration near 4 μM (final 0.4% DMSO). Compounds were diluted serially and applied to cells in multi-well plates 48 h after seeding. Incubation was continued in 5% CO2 at 37° C. for 24 h. Aliquots were removed and assayed for […] content using a sandwich ELISA (BioSource International). Amount of Aβ40 over the range of concentration of compounds, relative to control incubations, were fit to a 4-parameter IC50 model.
For orientation: ELISA stands for enzyme-linked immunosorbent assay.

Usually IC50 stands for the midpoint of a concentration-inhibition curve. Turning to `Cc1csc(CN(C)C(=O)c2cc(C(=O)N[C@@H](Cc3ccccc3)[C@H](O)[C@H]3CCCN3)cc(-c3cnco3)c2)n1` [1-12, N1-((1R,2S)-1-hydroxy-3-phenyl-1-((R)-pyrrolidin-2-yl)propan-2-yl)-N3-methyl-N3-((4-methylthiazol-2-yl)methyl)-5-(oxazol-5-yl)isophthalamide], the IC50 was above 1 µM.
`Cc1csc([C@H]2CCCN2C(=O)c2cccc(C(=O)N[C@@H](Cc3ccccc3)[C@H](O)[C@H]3C[C@@H](OCc4ccccc4)CN3)c2)n1` [1-22, N-((1R,2S)-1-((2R,4R)-4-(benzyloxy)pyrrolidin-2-yl)-1-hydroxy-3-phenylpropan-2-yl)-3-((R)-2-(4-methylthiazol-2-yl)pyrrolidine-1-carbonyl)benzamide]: the IC50 was below 0.5 µM.
With `Cc1csc([C@H]2CCCN2C(=O)c2cccc(C(=O)N[C@@H](Cc3ccccc3)[C@H](O)[C@H]3CC[C@@H](C)N3)c2)n1` [1-51, N-((1R,2S)-1-hydroxy-1-((2R,5R)-5-methylpyrrolidin-2-yl)-3-phenylpropan-2-yl)-3-((R)-2-(4-methylthiazol-2-yl)pyrrolidine-1-carbonyl)benzamide], the IC50 is above 1 µM.
To `Cc1csc([C@H]2CCCN2C(=O)c2cc(C(=O)N[C@@H](Cc3ccccc3)[C@H](O)[C@H]3CCCN3)cc(N3CCCC3=O)c2)n1` [1-39, N-((1R,2S)-1-hydroxy-3-phenyl-1-((R)-pyrrolidin-2-yl)propan-2-yl)-3-((R)-2-(4-methylthiazol-2-yl)pyrrolidine-1-carbonyl)-5-(2-oxopyrrolidin-1-yl)benzamide] belongs below 0.5 µM; to `Cc1csc([C@H]2CCCN2C(=O)c2cc(C(=O)N[C@@H](Cc3ccccc3)[C@H](O)[C@H]3CCCN3)cc(N(C)S(C)(=O)=O)c2)n1` [1-23, N-((1R,2S)-1-hydroxy-3-phenyl-1-((R)-pyrrolidin-2-yl)propan-2-yl)-3-(N-methylmethylsulfonamido)-5-((R)-2-(4-methylthiazol-2-yl)pyrrolidine-1-carbonyl)benzamide], below 0.5 µM; to `C[C@@H](NC(=O)c1cc(C(=O)N[C@@H](Cc2ccccc2)[C@H](O)[C@H]2CCCN2C(=O)OC(C)(C)C)cc(N(C)S(C)(=O)=O)c1)c1ccccc1` [1-5, (R)-tert-butyl 2-((1S,2S)-1-hydroxy-2-(3-(N-methylmethylsulfonamido)-5-((R)-1-phenylethylcarbamoyl)benzamido)-3-phenylpropyl)pyrrolidine-1-carboxylate], above 1 µM.
Turning to `Cc1coc([C@H]2CCCN2C(=O)c2cc(C(=O)N[C@@H](Cc3ccccc3)[C@H](O)[C@H]3CCCN3)cc(-c3cnccn3)c2)n1` [1-21, N-((1R,2S)-1-hydroxy-3-phenyl-1-((R)-pyrrolidin-2-yl)propan-2-yl)-3-((R)-2-(4-methyloxazol-2-yl)pyrrolidine-1-carbonyl)-5-(pyrazin-2-yl)benzamide], the IC50 was below 0.5 µM.
`Cc1csc(CN(C)C(=O)c2cccc(C(=O)N[C@@H](Cc3ccccc3)[C@H](O)[C@H]3C[C@@H](OCc4ccccc4)CN3)c2)n1` [1-9, N1-((1R,2S)-1-((2R,4R)-4-(benzyloxy)pyrrolidin-2-yl)-1-hydroxy-3-phenylpropan-2-yl)-N3-methyl-N3-((4-methylthiazol-2-yl)methyl)isophthalamide]: the IC50 was below 0.5 µM.
In the case of `C=C(C)c1cccc(CNC[C@@H](O)[C@H](Cc2ccccc2)NC(=O)c2cccc(C(=O)N3CCC[C@@H]3c3nc(C)co3)c2)c1` [2-6, N-((2S,3R)-3-hydroxy-1-phenyl-4-(3-(prop-1-en-2-yl)benzylamino)butan-2-yl)-3-((R)-2-(4-methyloxazol-2-yl)pyrrolidine-1-carbonyl)benzamide, reference compound], the IC50 is below 0.5 µM.
In the case of `Cc1csc([C@H]2CCCN2C(=O)c2cccc(C(=O)N[C@@H](Cc3ccccc3)[C@H](O)[C@H]3C[C@H](F)CN3)c2)n1` [1-47, N-((1R,2S)-1-((2R,4S)-4-fluoropyrrolidin-2-yl)-1-hydroxy-3-phenylpropan-2-yl)-3-((R)-2-(4-methylthiazol-2-yl)pyrrolidine-1-carbonyl)benzamide], the IC50 was above 1 µM.
With `Cc1csc(CN(C)C(=O)c2cc(C(=O)N[C@@H](Cc3ccccc3)[C@H](O)[C@H]3CCCN3)cc(-n3cccc3)c2)n1` [1-13, N1-((1R,2S)-1-hydroxy-3-phenyl-1-((R)-pyrrolidin-2-yl)propan-2-yl)-N3-methyl-N3-((4-methylthiazol-2-yl)methyl)-5-(1H-pyrrol-1-yl)isophthalamide], the IC50 fell in the range of 0.5 to 1 µM.
In the case of `Cc1csc([C@H]2CCCN2C(=O)c2cc(CF)cc(C(=O)N[C@H](Cc3ccccc3)[C@H](O)[C@H]3C[C@@H](OCc4ccccc4)CN3)c2)n1` [1-45, N-((1R,2R)-1-((2R,4R)-4-(benzyloxy)pyrrolidin-2-yl)-1-hydroxy-3-phenylpropan-2-yl)-3-(fluoromethyl)-5-((R)-2-(4-methylthiazol-2-yl)pyrrolidine-1-carbonyl)benzamide], the IC50 is above 1 µM.
`Cc1csc([C@H]2CCCN2C(=O)c2cccc(C(=O)N[C@@H](Cc3ccccc3)[C@H](O)CNCc3cccc(C(C)(C)C)c3)c2)n1` [2-10, N-((2S,3R)-4-(3-tert-butylbenzylamino)-3-hydroxy-1-phenylbutan-2-yl)-3-((R)-2-(4-methylthiazol-2-yl)pyrrolidine-1-carbonyl)benzamide, reference compound]: the IC50 was below 0.5 µM.
The figure for `Cc1csc([C@H]2CCCN2C(=O)c2cc(C(=O)N[C@@H](Cc3ccccc3)[C@H](O)[C@H]3CCCN3)cc(-c3cnccn3)c2)n1` [1-20, N-((1R,2S)-1-hydroxy-3-phenyl-1-((R)-pyrrolidin-2-yl)propan-2-yl)-3-((R)-2-(4-methylthiazol-2-yl)pyrrolidine-1-carbonyl)-5-(pyrazin-2-yl)benzamide] is below 0.5 µM; for `Cc1csc(CN(C)C(=O)c2cc(C(=O)N[C@@H](Cc3ccccc3)[C@H](O)[C@H]3CCCN3)cc(-c3ncco3)c2)n1` [1-15, N1-((1R,2S)-1-hydroxy-3-phenyl-1-((R)-pyrrolidin-2-yl)propan-2-yl)-N3-methyl-N3-((4-methylthiazol-2-yl)methyl)-5-(oxazol-2-yl)isophthalamide] it is below 0.5 µM.
For the compound `Cc1csc([C@H]2CCCN2C(=O)c2cc(C(=O)N[C@@H](Cc3ccccc3)[C@H](O)[C@H]3CCCN3)cc(-c3ncco3)c2)n1` [1-19, N-((1R,2S)-1-hydroxy-3-phenyl-1-((R)-pyrrolidin-2-yl)propan-2-yl)-3-((R)-2-(4-methylthiazol-2-yl)pyrrolidine-1-carbonyl)-5-(oxazol-2-yl)benzamide], the IC50 is below 0.5 µM.
Turning to `Cc1csc([C@H]2CCCN2C(=O)c2cc(C(=O)N[C@@H](Cc3ccccc3)[C@H](O)[C@H]3CCCN3)cc(C(F)F)c2)n1` [1-14, 3-(difluoromethyl)-N-((1R,2S)-1-hydroxy-3-phenyl-1-((R)-pyrrolidin-2-yl)propan-2-yl)-5-((R)-2-(4-methylthiazol-2-yl)pyrrolidine-1-carbonyl)benzamide], the IC50 is below 0.5 µM.
With `Cc1csc(CN(C)C(=O)c2cc(C(=O)N[C@@H](Cc3ccccc3)[C@H](O)[C@H]3CCCN3C(=O)OC(C)(C)C)cc(-c3ncco3)c2)n1` [1-7, (R)-tert-butyl 2-((1S,2S)-1-hydroxy-2-(3-(methyl((4-methylthiazol-2-yl)methyl)carbamoyl)-5-(oxazol-2-yl)benzamido)-3-phenylpropyl)pyrrolidine-1-carboxylate], the IC50 was above 1 µM.
Consider `Cc1csc([C@H]2CCCN2C(=O)c2cc(F)cc(C(=O)N[C@@H](Cc3ccccc3)[C@H](O)[C@H]3CCCN3)c2)n1` [1-32, 3-fluoro-N-((1R,2S)-1-hydroxy-3-phenyl-1-((R)-pyrrolidin-2-yl)propan-2-yl)-5-((R)-2-(4-methylthiazol-2-yl)pyrrolidine-1-carbonyl)benzamide], for which the IC50 is above 1 µM.
In the case of `Cc1csc([C@H]2CCCN2C(=O)c2cncc(C(=O)N[C@@H](Cc3ccccc3)[C@H](O)CNCc3cc(Cl)nc(N(C)C)c3)c2)n1` [2-1, N-((2S,3R)-4-((2-chloro-6-(dimethylamino)pyridin-4-yl)methylamino)-3-hydroxy-1-phenylbutan-2-yl)-5-((R)-2-(4-methylthiazol-2-yl)pyrrolidine-1-carbonyl)nicotinamide, reference compound], the IC50 is below 0.5 µM.
With `Cc1csc(CN(C)C(=O)c2cc(C(=O)N[C@@H](Cc3ccccc3)[C@H](O)[C@H]3CCCN3)cc(N(C)S(C)(=O)=O)c2)n1` [1-27, N1-((1R,2S)-1-hydroxy-3-phenyl-1-((R)-pyrrolidin-2-yl)propan-2-yl)-N3-methyl-5-(N-methylmethylsulfonamido)-N3-((4-methylthiazol-2-yl)methyl)isophthalamide], the IC50 is below 0.5 µM.
`Cc1csc(CN(C)C(=O)c2cccc(C(=O)N[C@@H](Cc3ccccc3)[C@H](O)[C@H]3CCCN3C(=O)OC(C)(C)C)c2)n1` [1-1, (R)-tert-butyl 2-((1S,2S)-1-hydroxy-2-(3-(methyl((4-methylthiazol-2-yl)methyl)carbamoyl)benzamido)-3-phenylpropyl)pyrrolidine-1-carboxylate]: the IC50 was above 1 µM.
Consider `Cc1csc([C@H]2CCCN2C(=O)c2cccc(C(=O)N[C@@H](Cc3ccccc3)[C@H](O)[C@@H]3CCCN3)c2)n1` [1-48, N-((1R,2S)-1-hydroxy-3-phenyl-1-((S)-pyrrolidin-2-yl)propan-2-yl)-3-((R)-2-(4-methylthiazol-2-yl)pyrrolidine-1-carbonyl)benzamide], for which the IC50 is above 1 µM.

Values taken from US20130102593A1, “PYRROLIDINE COMPOUNDS WHICH INHIBIT BETA-SECRETASE ACTIVITY AND METHODS OF USE THEREOF” (priority 2008, published 2013).
